From ChEMBL document CHEMBL1201862, “PubChem BioAssay data set” (2004)
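Results reflect a 48-hour exposure of cells in 96-well plates to compound at five concentrations. GI50 = concentration required for 50% inhibition of growth.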 The source made the active and inactive calls. Rule as the data show it: active = GI50 up to about 1.1 µM and inactive = higher.

Assays:
Experiment in all cases: DTP human tumour cell line panel, 48 h
MOLT-4 = system: MOLT-4
U-251 = system: U-251
SR = system: SR
MDA-N = system: MDA-N
KM12 = system: KM12
RPMI-8226 = system: RPMI-8226
OVCAR-8 = system: OVCAR-8
SK-OV-3 = system: SK-OV-3
SK-MEL-2 = system: SK-MEL-2
LOX IMVI = system: LOX IMVI
HOP-92 = system: HOP-92
NCI/ADR-RES = system: NCI/ADR-RES
HCT-15 = system: HCT-15
UACC-62 = system: UACC-62
786-0 = system: 786-0
UACC-257 = system: UACC-257
PC-3 = system: PC-3
SF-295 = system: SF-295
HCT-116 = system: HCT-116
ACHN = system: ACHN
MDA-MB-435 = system: MDA-MB-435
SN12C = system: SN12C
OVCAR-3 = system: OVCAR-3
OVCAR-5 = system: OVCAR-5
HCC 2998 = system: HCC 2998
M14 = system: M14
NCI-H522 = system: NCI-H522
SK-MEL-28 = system: SK-MEL-28
UO-31 = system: UO-31
COLO 205 = system: COLO 205
A498 = system: A498
SNB-19 = system: SNB-19
OVCAR-4 = system: OVCAR-4
RXF 393 = system: RXF 393
Hs-578T = system: Hs-578T
IGROV-1 = system: IGROV-1
SF-268 = system: SF-268
EKVX = system: EKVX
SW-620 = system: SW-620
Malme-3M = system: Malme-3M
NCI-H23 = system: NCI-H23
MDA-MB-231 = system: MDA-MB-231
MCF7 = system: MCF7
NCI-H460 = system: NCI-H460
NCI-H226 = system: NCI-H226
DU-145 = system: DU-145
T47D = system: T47D
HT-29 = system: HT-29
SK-MEL-5 = system: SK-MEL-5
SF-539 = system: SF-539
HOP-62 = system: HOP-62
A549 = system: A549
K562 = system: K562
HL-60 = system: HL-60

SMILES: C=C[C@]1(O)CCC[C@]2(C)C(=O)CCC12C (some centres undefined)
- GI50 (MOLT-4): > 100 µM (inactive)
- GI50 (U-251): > 100 µM (inactive)
- GI50 (SR): > 100 µM (inactive)
- GI50 (MDA-N): > 100 µM (inactive)
- GI50 (KM12): > 100 µM (inactive)
- GI50 (RPMI-8226): > 100 µM (inactive)
- GI50 (OVCAR-8): > 100 µM (inactive)
- GI50 (SK-OV-3): > 100 µM (inactive)
- GI50 (SK-MEL-2): > 100 µM (inactive)
- GI50 (LOX IMVI): > 100 µM (inactive)
- GI50 (HOP-92): > 100 µM (inactive)
- GI50 (NCI/ADR-RES): > 100 µM (inactive)
- GI50 (HCT-15): > 100 µM
- GI50 (UACC-62): > 100 µM (inactive)
- GI50 (786-0): > 100 µM (inactive)
- GI50 (UACC-257): > 100 µM (inactive)
- GI50 (PC-3): > 100 µM (inactive)
- GI50 (SF-295): > 100 µM (inactive)
- GI50 (HCT-116): > 100 µM (inactive)
- GI50 (ACHN): > 100 µM (inactive)
- GI50 (MDA-MB-435): > 100 µM (inactive)
- GI50 (SN12C): > 100 µM (inactive)
- GI50 (OVCAR-3): > 100 µM (inactive)
- GI50 (OVCAR-5): > 100 µM (inactive)
- GI50 (HCC 2998): > 100 µM (inactive)
- GI50 (M14): > 100 µM (inactive)
- GI50 (NCI-H522): > 100 µM (inactive)
- GI50 (SK-MEL-28): > 100 µM (inactive)
- GI50 (UO-31): > 100 µM (inactive)
- GI50 (COLO 205): > 100 µM (inactive)
- GI50 (A498): > 100 µM (inactive)
- GI50 (SNB-19): > 100 µM (inactive)
- GI50 (OVCAR-4): > 100 µM (inactive)
- GI50 (RXF 393): > 100 µM (inactive)
- GI50 (Hs-578T): > 100 µM (inactive)
- GI50 (IGROV-1): > 100 µM (inactive)
- GI50 (SF-268): > 100 µM (inactive)
- GI50 (EKVX): > 100 µM (inactive)
- GI50 (SW-620): > 100 µM (inactive)
- GI50 (Malme-3M): > 100 µM (inactive)
- GI50 (NCI-H23): > 100 µM (inactive)
- GI50 (MDA-MB-231): > 100 µM (inactive)
- GI50 (MCF7): > 100 µM (inactive)
- GI50 (NCI-H460): > 100 µM (inactive)
- GI50 (NCI-H226): > 100 µM (inactive)
- GI50 (DU-145): > 100 µM (inactive)
- GI50 (T47D): > 100 µM (inactive)
- GI50 (HT-29): > 100 µM (inactive)
- GI50 (SK-MEL-5): > 100 µM (inactive)
- GI50 (SF-539): > 100 µM (inactive)
- GI50 (HOP-62): > 100 µM (inactive)
- GI50 (A549): > 100 µM (inactive)
- GI50 (K562): > 100 µM (inactive)
- GI50 (HL-60): > 100 µM (inactive)
